This note sets out measurements from patent US12226410B2, “Methods for enhancing cellular clearance of pathological molecules via activation of the cellular protein ykt6” (NORTHWESTERN UNIVERSITY, priority 2019, dated 2025).

The structures appear in SMILES notation.

The subject of the test is ykt6. As to the kind of experiment: FTI treatment of DASYN53 mice: membrane-associated ykt6 and SNARE complexes. It counts as in vivo. The following applies: DASYN53 mice 12-14 months; i.p. 0.9 mg/kg, 26d; olfactory bulbs, midbrain. The protocol:
FIGS. 7A, 7B, 7C, 7D, and 7E. FTI treatment restores functional membrane-associated ykt6 complexes in DASYN53 mice. 7A) Immunohistochemistry in the midbrain of mice showing ykt6, tyrosine hydroxylase (TH), NeuN, and nuclei (DAPI). Scale bar, 50 μm. 7B) Ykt6 membrane shift analysis in olfactory bulbs of FTI (LNK-754)-injected DASYN53 mice (12-14 months, i.p. 26d, 0.9 mg/kg) (n=5, non-transgenic (nTg)+veh; n=4, DASYN53+veh; n=4 DASYN53+FTI). GAPDH and sec22b are loading controls. 7C) SEC/western blot analysis of midbrains of FTI-treated DASYN53 mice. Inputs are shown on the left. NSE is a loading control. […] (n=3, nTg+veh; n=4, DASYN53+veh; n=4 DASYN53+FTI). 7D) Quantification of complexes from SEC in 7C. 7E) GCase maturation was assessed in midbrain lysates by endo H resistance (n=4, nTg+veh; n=4, DASYN53+veh; n=4 DASYN53+FTI). For all quantifications, each point represents a measurement from an individual animal. Values are the mean+/−SEM, *p<0.05; **p<0.01, ***p<0.001, ANOVA with Tukey's post-hoc test.
Treatment of C57Bl/6 and DASYN53 mice with farnesyltransferase inhibitors. 3 mo old C57BL6 mice were i.p. injected daily with 0.9 mg/kg LNK-754 that was formulated in a vehicle of 0.5% sodium carboxymethylcellulose and filtered before use for 14 days. DASYN53 mice were i.p. injected daily with 0.9 mg/kg LNK-754 as above. […]

Take `C#Cc1cccc(-c2cc(=O)n(C)c3ccc([C@](O)(c4ccc(Cl)cc4)c4cncn4C)cc23)c1` [LNK-754]: the “reduced membrane-associated ykt6 and SNARE complexes of DASYN53 mice” value is given as “reversed these effects”.
